Assays:
[1] = molecular target: Human TLR4 (Homo sapiens, UniProt O00206); assay: Human PBMC cell-based assay, LPS stimulus, IL-6 ELISA; parameters: endogenous in cells; host or cells: primary human PBMC from healthy donor blood; details: Hu PBMC; ligand LPS; analyte IL-6
Experimental: (§1) Human peripheral blood mononuclear cells (PBMC) were isolated from freshly-drawn heparinized (10 USP units/ml, Hospira, Lakeforest, Ill.) healthy donor whole blood by density gradient (Histopaque® 1077, Sigma, Inc., St. Louis, Mo.). Briefly, 25 ml blood was diluted with 15 ml PBS (without Ca^2+, Mg^2+) in a 50 ml conical tube, and 12 ml Histopaque was underlaid using a spinal needle. Tubes were centrifuged for 45 minutes at 1200 rpm (350×g), and PBMC were collected from the buffy coat. Cells were then washed twice in PBS, and red blood cells were lysed by suspension in 5 ml ammonium chloride solution (1× Red Blood Cell Lysis Buffer, eBioscience) for 5 minutes at room temperature. […]
(§2) Antagonist compounds solubilized and serial diluted in 100% DMSO were added in triplicate to cells to yield a final concentration of 0.1% DMSO (v/v). […] Cell culture supernatants were collected, and levels of various human cytokines were assessed as indicated by standard ELISA procedure according to the manufacturer's recommended protocol (BD Biosciences, Inc., San Diego, Calif.).

[2] = molecular target: T1, Human TLR9 (Homo sapiens, UniProt Q9NR96); assay: Human PBMC cell-based assay, CpG-ODN stimulus, IL-6 ELISA; parameters: endogenous in cells; host or cells: primary human PBMC from healthy donor blood; details: Hu PBMC; ligand CpG-ODN; analyte IL-6
T1 sequence (Q9NR96 26-1032): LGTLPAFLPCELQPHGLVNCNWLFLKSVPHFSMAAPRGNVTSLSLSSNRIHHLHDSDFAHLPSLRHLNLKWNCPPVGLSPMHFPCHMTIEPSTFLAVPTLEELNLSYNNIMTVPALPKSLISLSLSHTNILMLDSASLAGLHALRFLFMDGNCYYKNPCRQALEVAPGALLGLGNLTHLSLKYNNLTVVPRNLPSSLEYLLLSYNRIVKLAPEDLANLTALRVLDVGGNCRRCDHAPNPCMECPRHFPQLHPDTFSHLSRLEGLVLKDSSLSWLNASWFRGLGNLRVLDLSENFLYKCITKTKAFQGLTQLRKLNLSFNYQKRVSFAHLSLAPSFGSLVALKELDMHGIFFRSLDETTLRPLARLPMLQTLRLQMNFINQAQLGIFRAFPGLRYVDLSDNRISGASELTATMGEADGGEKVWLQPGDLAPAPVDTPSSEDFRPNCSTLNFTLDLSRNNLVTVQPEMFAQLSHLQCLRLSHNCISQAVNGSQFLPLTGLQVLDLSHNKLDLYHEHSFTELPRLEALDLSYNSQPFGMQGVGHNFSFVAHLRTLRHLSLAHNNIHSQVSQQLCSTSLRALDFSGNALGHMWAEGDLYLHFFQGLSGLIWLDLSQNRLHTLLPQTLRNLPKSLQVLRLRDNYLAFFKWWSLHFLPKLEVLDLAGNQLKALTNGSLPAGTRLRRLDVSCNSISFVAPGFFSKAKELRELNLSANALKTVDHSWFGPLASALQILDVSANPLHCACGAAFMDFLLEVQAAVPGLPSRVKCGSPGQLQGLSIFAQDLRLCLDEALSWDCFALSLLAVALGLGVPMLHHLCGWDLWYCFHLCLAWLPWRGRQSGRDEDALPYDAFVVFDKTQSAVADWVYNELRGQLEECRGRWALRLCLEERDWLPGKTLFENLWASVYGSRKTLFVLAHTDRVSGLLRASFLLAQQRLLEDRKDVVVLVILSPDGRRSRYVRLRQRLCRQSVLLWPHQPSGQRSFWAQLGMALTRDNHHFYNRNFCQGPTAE
Experimental: as §1, §2

Sequence of Human TLR4 (O00206 24-839): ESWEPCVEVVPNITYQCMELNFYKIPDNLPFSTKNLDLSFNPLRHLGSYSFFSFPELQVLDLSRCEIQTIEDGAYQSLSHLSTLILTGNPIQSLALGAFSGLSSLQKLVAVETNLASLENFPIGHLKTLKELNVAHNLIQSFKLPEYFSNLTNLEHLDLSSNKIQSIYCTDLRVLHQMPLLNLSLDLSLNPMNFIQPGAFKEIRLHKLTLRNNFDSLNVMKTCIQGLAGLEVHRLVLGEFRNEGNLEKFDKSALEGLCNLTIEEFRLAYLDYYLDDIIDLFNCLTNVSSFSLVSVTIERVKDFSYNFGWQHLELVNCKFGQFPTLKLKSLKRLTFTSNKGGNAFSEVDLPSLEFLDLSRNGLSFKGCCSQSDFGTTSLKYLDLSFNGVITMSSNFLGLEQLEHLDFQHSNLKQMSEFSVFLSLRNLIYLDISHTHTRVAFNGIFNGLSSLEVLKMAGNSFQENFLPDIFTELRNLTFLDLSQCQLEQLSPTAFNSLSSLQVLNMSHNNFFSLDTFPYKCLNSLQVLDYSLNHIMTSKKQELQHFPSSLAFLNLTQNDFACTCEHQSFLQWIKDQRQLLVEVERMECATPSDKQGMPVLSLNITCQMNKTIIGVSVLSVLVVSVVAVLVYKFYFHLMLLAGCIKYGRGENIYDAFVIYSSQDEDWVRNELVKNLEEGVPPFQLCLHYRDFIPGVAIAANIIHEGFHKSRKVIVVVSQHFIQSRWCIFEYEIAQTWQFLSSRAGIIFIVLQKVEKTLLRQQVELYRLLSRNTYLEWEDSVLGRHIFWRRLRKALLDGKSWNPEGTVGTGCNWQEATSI
Sequence of Human TLR4 (Q9Y6Y9 19-160 partner): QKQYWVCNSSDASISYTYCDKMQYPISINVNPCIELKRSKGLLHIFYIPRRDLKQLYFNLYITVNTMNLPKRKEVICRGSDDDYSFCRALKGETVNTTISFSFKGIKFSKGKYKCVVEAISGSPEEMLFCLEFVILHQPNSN

## COc1ccc([C@@H]2C[C@H](C(F)(F)F)n3nc(-c4ccc(C(=O)N5CCNCC5)cc4)cc3N2)cc1OC [ER-892887, (4-((5S,7R)-5-(3,4-dimethoxyphenyl)-7-(trifluoromethyl)-4,5,6,7-tetrahydropyrazolo[1,5-a]pyrimidin-2-yl)phenyl)(piperazin-1-yl)methanone]
[1]
  IC50: > 10 µM
[2]
  IC50: > 10 µM
